Measured values from paper PMC5106240 (Drug Design, Development and Therapy, 2016).

How the values were obtained:
Format in all cases: in vivo, Wistar rats
PTZ-induced convulsions = assay: PTZ-induced seizure model; details: rats
MES-induced convulsions = assay: MES-induced seizure model; details: rats, 10 mg/kg IP, vs saline-treated group
STR-induced convulsions = assay: STR-induced seizure model; details: rats, 10, 20, 30 minutes observation
[1] = 10 mg/kg IP, 30 minutes before PTZ 60 mg/kg IP, 10, 20, 30 minutes observation

Compound | Protective effect on PTZ-induced convulsions (convulsion score) (PTZ-induced convulsions; [1]) | Protective effect on PTZ-induced convulsions (convulsion score) (PTZ-induced convulsions; 10 and 15 mg/kg IP, 10, 20, 30 minutes) | Protective effect on MES-induced convulsions (duration of THLE) (MES-induced convulsions) | Protective effect on STR-induced convulsions (convulsion score) (STR-induced convulsions; 10 mg/kg IP, 30 minutes before STR 3.5 mg/kg IP) | Protective effect on PTZ-induced convulsions (convulsion score) (PTZ-induced convulsions; 100 mg/kg IP, 10, 20, 30 minutes observation) | Protective effect on STR-induced convulsions (convulsion score) (STR-induced convulsions; 300 mg/kg IP)
O=C1NC(=O)C(c2ccccc2)(c2ccc(OCCCN3CCCCC3)cc2)N1 (centres unmarked) [Compound 6, 5-Phenyl-5-(4-(3-(piperidin-1-yl)propoxy)phenyl) imidazolidine-2,4-dione] | full protection | significant and full protective effect | failed to provide significant protection | – | – | –
O=C1NC(=O)C(c2ccccc2)(c2ccccc2)N1 [PHT, Phenytoin] | – | – | fully | – | – | –
Clc1ccc(CCCOCCCN2CCCCC2)cc1 [PIT, pitolisant] | failed to provide protection | – | moderately protected | failed to provide protection | – | –
C[C@@H](N)Cc1cnc[nH]1 [RAMH, R-(α)-methyl-histamine] | did not affect convulsion score | – | did not affect MES-induced seizures | – | – | –
CCCC(CCC)C(=O)O [VPA, valproic acid] | – | – | – | – | significant protection | significant protection
